The source of these data is patent US20050267156A1, “Broadspectrum 2-amino-benzothiazole sulfonamide hiv protease inhibitors” (Tibotec Pharmaceuticals Ltd., priority 2002, published 2005).

Where two headings read alike, the source gives them in different places. A value given as a limit tells only on which side of the number the result lay.

Series [1] has as its system mutant HIV strain E. Put plainly: microbe, parasite or virus in culture. The format is cell-based. The settings on record: for fold resistance Strain E: FR=EC50 (mutant strain)/EC50 (HIV-1 strain LAI); for EC50: Human immunodeficiency virus 1, MT4, read-out: pEC50 Strain E, mutant HIV strain E, MT4 cells (converted). The protocol: (§1) HIV- or mock-infected MT4 cells were incubated for five days in the presence of various concentrations of the inhibitor. […] Cell viability is measured by measuring the concentration of MTT, a yellow, water soluble tetrazolium dye that is converted to a purple, water insoluble formazan in the mitochondria of living cells only. Upon solubilization of the resulting formazan crystals with isopropanol, the absorbance of the solution is monitored at 540 nm. The values correlate directly to the number of living cells remaining in the culture at the completion of the five-day incubation. The inhibitory activity of the compound was monitored on the virus-infected cells and was expressed as EC50 and EC90. These values represent the amount of the compound required to protect 50% and 90%, respectively, of the cells from the cytopathogenic effect of the virus. […] The selectivity index (SI) (ratio CC50/EC50) is an indication of the selectivity of the anti-HIV activity of the inhibitor. Wherever results are reported as e.g. pEC50 or pCC50 values, the result is expressed as the negative logarithm of the result expressed as EC50 or CC50 respectively.

Series [2] deals with mutant HIV strain C. Put plainly: microbe, parasite or virus in culture. The format is cell-based. The note with it: for fold resistance Strain C: FR=EC50 (mutant strain)/EC50 (HIV-1 strain LAI); for pEC50 Strain C: mutant HIV strain C, MT4 cells; for EC50: Human immunodeficiency virus 1, MT4, read-out: pEC50 Strain C, mutant HIV strain C, MT4 cells (converted). The protocol: as §1

Series [3] relates to mutant HIV strain D. Put plainly: microbe, parasite or virus in culture. The settings on record: for fold resistance Strain D: FR=EC50 (mutant strain)/EC50 (HIV-1 strain LAI); for EC50: Human immunodeficiency virus 1, MT4, read-out: pEC50 Strain D, mutant HIV strain D, MT4 cells (converted). The format is cell-based. The protocol:
as §1

Series [4] concerns mutant HIV strain F. The experiment in a line: microbe, parasite or virus in culture. The settings on record: for fold resistance Strain F: FR=EC50 (mutant strain)/EC50 (HIV-1 strain LAI); for pEC50 Strain F: mutant HIV strain F, MT4 cells; for EC50: Human immunodeficiency virus 1, MT4, read-out: pEC50 Strain F, mutant HIV strain F, MT4 cells (converted). In kind it is cell-based. The protocol:
as §1

Series [5] concerns mutant HIV strain B. The experiment in a line: microbe, parasite or virus in culture. In kind it is cell-based. The settings on record: for fold resistance Strain B: FR=EC50 (mutant strain)/EC50 (HIV-1 strain LAI); for pEC50 Strain B: mutant HIV strain B, MT4 cells; for EC50: Human immunodeficiency virus 1, MT4, read-out: pEC50 Strain B, mutant HIV strain B, MT4 cells (converted). The protocol:
as §1

Series [6] has as its system mutant HIV strain A. The experiment in a line: microbe, parasite or virus in culture. The format is cell-based. The settings on record: for fold resistance Strain A: FR=EC50 (mutant strain)/EC50 (HIV-1 strain LAI); for pEC50 Strain A: mutant HIV strain A, MT4 cells; for EC50: Human immunodeficiency virus 1, MT4, read-out: pEC50 Strain A, mutant HIV strain A, MT4 cells (converted). The protocol: as §1

Series [7] has as its system HIV-1 strain LAI. The experiment in a line: Cellular anti-HIV assay (MT4/MTT), wild type. The note with it: wild type HIV-1 strain LAI, MT4 cells; for EC50: Human immunodeficiency virus 1, read-out: WT (pEC50) (converted). The format is cell-based. The protocol: as §1, with “The compounds of the present invention were examined for anti-viral activity in a cellular assay. […] The cellular assay was performed according to the following procedure. HIV-” for “HIV-”

The test system of series [8] is mock-infected MT4 cells. Put plainly: Toxicity on mock-infected cells (MTT). The format is cell-based. The protocol: (§2) HIV- or mock-infected MT4 cells were incubated for five days in the presence of various concentrations of the inhibitor. At the end of the incubation period, the replicating virus in the control cultures has killed all HIV-infected cells in the absence of any inhibitor. Cell viability is measured by measuring the concentration of MTT, a yellow, water soluble tetrazolium dye that is converted to a purple, water insoluble formazan in the mitochondria of living cells only. Upon solubilization of the resulting formazan crystals with isopropanol, the absorbance of the solution is monitored at 540 nm. The values correlate directly to the number of living cells remaining in the culture at the completion of the five-day incubation. The inhibitory activity of the compound was monitored on the virus-infected cells and was expressed as EC50 and EC90. These values represent the amount of the compound required to protect 50% and 90%, respectively, of the cells from the cytopathogenic effect of the virus. […] The selectivity index (SI) (ratio CC50/EC50) is an indication of the selectivity of the anti-HIV activity of the inhibitor. Wherever results are reported as e.g. pEC50 or pCC50 values, the result is expressed as the negative logarithm of the result expressed as EC50 or CC50 respectively.

Series [9] can be described thus: Pharmacokinetics in rats. In kind it is in vivo, Whistar rats. The note with it: Whistar, rat, blood, 10 mpk, read-out: Cmax. The protocol:
The pharmacokinetic properties of some compounds of formula (I) were tested on rats and dogs. The compounds were evaluated in Whistar rats, source Iffa Credo, weighing approximately 350 g. Before dosing the animals were fasted overnight (approximately 12 h fasting period). The compounds were dissolved in DMSO or PEG 400. The results represented in the table concern the results from the oral or intra-peritoneal dosing of the compounds. Blood was sampled at 30 min, 1 h, 2 h, 3 h, no pre-dose sample was taken. The amount of the compound in the biological sample was determined using LC-MS. In the table below “or” means oral dosing, “ip” means intraperitoneal dosing, “mpk” means mg per kilogram.

Series [10] is described as follows: Toxicity on mock-infected cells (MTT). The format is cell-based. The note with it: human. The protocol: as §2
[11] abbreviates: ip, ip, DMSO, results normalized to 10 mpk.
[12] abbreviates: po, or, DMSO, results normalized to 10 mpk.
The mark [13] stands for this setting: po, or, PEG400, results normalized to 10 mpk.

For the compound `CC(C)CN(C[C@@H](O)[C@H](Cc1ccccc1)NC(=O)O[C@H]1CCOC1)S(=O)(=O)c1ccc2nc(N)sc2c1` [Compound 13, {(1S,2R)-3-[(2-amino-benzothiazole-6-sulfonyl)-isobutyl-amino]-1-benzyl-2-hydroxypropyl}-carbamic acid(S) (tetrahydro-furan-3-yl)ester], the “fold resistance Strain E” value in [1] is 0.9. Moreover, the “pEC50 Strain E” value in series [1] (mutant HIV strain E, MT4 cells) came to 8.57. Besides, in series [2], the “fold resistance Strain C” value was determined as 1.3 and the “pEC50 Strain C” value is listed as 8.42. In addition, in [3], the “fold resistance Strain D” value stood at 2.5. For the same compound, in [3] (mutant HIV strain D, MT4 cells), the “pEC50 Strain D” value is 8.13. Also, in [4], the “fold resistance Strain F” value was 34.7 and the “pEC50 Strain F” value stood at 6.98. In addition, in [5], the “fold resistance Strain B” value came to 1.9 and the “pEC50 Strain B” value worked out at 8.24. Besides, in [6], the “fold resistance Strain A” value was 13.5 and the “pEC50 Strain A” value was found to be 7.39. Further, in series [7], the “WT (pEC50)” value was found to be 8.52. For the same compound, the “Tox (pCC50)” value in series [8] was below 4.

One may read the Cmax as the peak of the concentration-time curve. A word on the CC50: it is the concentration giving 50% cytotoxicity. On to `CNc1nc2ccc(S(=O)(=O)N(CC(C)C)C[C@@H](O)[C@H](Cc3ccccc3)NC(=O)COc3c(C)cc(CN)cc3C)cc2s1` [Compound 25, 2-(4-aminomethyl-2,6-dimethyl-phenoxy)-N-{(1S,2R)-1-benzyl-2-hydroxy-3-[isobutyl-(2-methylamino-benzothiazole-6-sulfonyl)-amino]-propyl}-acetamide], for which the Cmax in series [9] (setting [11]) amounted to 453 ng/mL. Also, in [1], the “fold resistance Strain E” value was determined as 4.3 and the EC50 is 17.4 nM. Also, in series [2], the “fold resistance Strain C” value is 4.4 and the EC50 was 17.8 nM. In addition, in series [3], the “fold resistance Strain D” value came to 10.0 and the EC50 is 40.7 nM. For the same compound, in series [4], the “fold resistance Strain F” value is on record as 117.5 and the EC50 was 479 nM. In series [5], the “fold resistance Strain B” value is 4.9 and the EC50 was 20 nM. In [6], the “fold resistance Strain A” value is 10.7 and the EC50 was 43.7 nM. Moreover, the EC50 in [7] was 4.07 nM. Further, the 50% cytotoxic concentration (CC50) at 5 days in series [10] is 14100 nM.

For `CNc1nc2ccc(S(=O)(=O)N(CC(C)C)C[C@@H](O)[C@H](Cc3ccccc3)NC(=O)OCc3cnco3)cc2s1` [Compound 28, {(1S,2R)-1-benzyl-2-hydroxy-3-[isobutyl-(2-methylamino-benzothiazole-6-sulfonyl)-amino]-propyl}-carbamic acid oxazol-5-ylmethyl ester], the Cmax amounted to 1000 ng/mL in series [9] (setting [11]), 540 ng/mL in series [9] (setting [12]) and 430 ng/mL in series [9] (setting [13]). Besides, the “fold resistance Strain E” value in series [1] was 2.8. Besides, the EC50 in series [1] was 7.08 nM; in series [2], 6.17 nM; in series [3] it was 37.2 nM; in series [4], 77.6 nM; in series [5], 5.62 nM; in series [6] it was 19.5 nM. For the same compound, in series [7], the EC50 is 2.51 nM. Moreover, in series [2], the “fold resistance Strain C” value amounted to 2.5. In addition, in series [3], the “fold resistance Strain D” value worked out at 14.8. Besides, in series [4], the “fold resistance Strain F” value was 30.9. The “fold resistance Strain B” value in series [5] is 2.2. Besides, the “fold resistance Strain A” value in [6] is on record as 7.8.

Turning to `CNc1nc2ccc(S(=O)(=O)N(CC(C)C)C[C@@H](O)[C@H](Cc3ccccc3)NC(=O)COc3c(C)cccc3C)cc2s1` [Compound 15, N-{(1S,2R)-1-benzyl-2-hydroxy-3-[isobutyl-(2-methylamino-benzothiazole-6-sulfonyl)-amino]-propyl}-2-(2,6-dimethyl-phenoxy)-acetamide], the Cmax in series [9] (setting [11]) was 86 ng/mL; in series [9] (setting [13]) it was 10 ng/mL. Besides, the “fold resistance Strain E” value in [1] stood at 3.2. Further, the EC50 in series [1] is 36.3 nM; in series [2], 39.8 nM; in [3] it was 50.1 nM; in [4] it was 229 nM; in series [5] it was 28.8 nM; in series [6], 51.3 nM. Further, in [7], the EC50 was 11.2 nM. The “fold resistance Strain C” value in series [2] turned out to be 3.5. Besides, the “fold resistance Strain D” value in [3] was 4.5. Also, in series [4], the “fold resistance Strain F” value came out at 20.4. For the same compound, the “fold resistance Strain B” value in series [5] was found to be 2.6. Also, the “fold resistance Strain A” value in series [6] was 4.6. For the same compound, the midpoint of cytotoxicity in series [10], the CC50 at 5 days, lay at 91200 nM.

On to `CNc1nc2ccc(S(=O)(=O)N(CC(C)C)C[C@@H](O)[C@H](Cc3ccccc3)NC(=O)OC3COC4OCCC34)cc2s1` (stereo partly drawn) [Compound 4, {(1S,2R)-1-benzyl-2-hydroxy-3-[isobutyl-(2-methylamino-benzothiazole-6-sulfonyl)-amino]-propyl}-carbamic acid hexahydro-furo[2,3-b]furan-3-yl ester], for which the Cmax in [9] (setting [11]) is 1670 ng/mL; in [9] (setting [12]) it was 348 ng/mL; in [9] (setting [13]), 225 ng/mL. Further, the “fold resistance Strain E” value in series [1] was 2.8. Moreover, the EC50 is 1.29 nM in series [1]; 1.17 nM in series [2]; 1.17 nM in series [3]; 8.71 nM in series [4]; 1.17 nM in [5]; 3.63 nM in [6]. Besides, the EC50 in series [7] was 0.457 nM. The “fold resistance Strain C” value in series [2] was 2.6. In series [3], the “fold resistance Strain D” value was 2.6. Besides, in [4], the “fold resistance Strain F” value stood at 19.1. The “fold resistance Strain B” value in series [5] came out at 2.6. In addition, the “fold resistance Strain A” value in series [6] was 7.9. This compound returned a CC50 at 5 days in [10] above 10000 nM.

Turning to `CNc1nc2ccc(S(=O)(=O)N(CC(C)C)C[C@@H](O)[C@H](Cc3ccccc3)NC(=O)O[C@H]3CO[C@H]4OCC[C@H]43)cc2s1` [Compound 5, {(1S,2R)-1-benzyl-2-hydroxy-3-[isobutyl-(2-methylamino-benzothiazole-6-sulfonyl)-amino]-propyl}-carbamic acid(3R,3aS,6aR)-(hexahydro-furo[2,3-b]furan-3-yl)ester], in series [2], the “fold resistance Strain C” value is listed as 0.4 and the “pEC50 Strain C” value came out at 9.71. Besides, in series [4], the “fold resistance Strain F” value is 3.5 and the “pEC50 Strain F” value came to 8.71. In [5], the “fold resistance Strain B” value is 0.5 and the “pEC50 Strain B” value worked out at 9.57. For the same compound, in [6], the “fold resistance Strain A” value came out at 0.8 and the “pEC50 Strain A” value is recorded as 9.37. For the same compound, in [7], the “WT (pEC50)” value is recorded as 9.26. Moreover, in series [8], the “Tox (pCC50)” value worked out at 4.15.
